# Test results taken from US20230399321A1, “CRYSTALLINE FORM II OF MELANOCORTIN RECEPTOR AGONIST COMPOUND AND PREPARATION METHOD THEREFOR” (LG CHEM, LTD., priority 2020, published 2023).
# Structures can show the parent of a compound that is named as a salt.
# Legend:
# [1] = Thermogravimetric analysis (TGA); format: physicochemical; conditions: heated from 30° C. to 350° C. at 10° C./min; no weight loss in the DSC endothermic section
# Method: The TGA was measured using Mettler Toledo TGA/DSC 1 module. About 4-8 mg of the sample is weighed and put into a 100 μL Al crucible (flat-bottomed aluminum crucibles). Then, TGA measurement is performed while the sample is heated from 30° C. to 350° C. at a rate of 10° C./min. During the measurement, nitrogen gas is supplied to the inside of the instrument at a rate of 80 mL/min to prevent the inflow of oxygen and other gases. Data collection and evaluation were performed using the software STARe.
# [2] = Stability assessment by HPLC after storage; format: physicochemical; conditions: for HPLC analysis result, Open ACC: open state, accelerated condition (40° C., 75% RH); for HPLC analysis result, Open ACC / HPLC analysis result, Closed STR: in % (unit assumed); for HPLC analysis result, Closed STR: sealed state, harsh condition, oven at 80° C.
# Method: About 10-30 mg of the sample was stored for 4 weeks in an open state under the accelerated condition (40° C., 75% RH) or in a sealed state under the harsh condition in an oven at 80° C.
smiles,measurement,setting,value
"CC(C)C(=O)N([C@H]1C[C@@H](C(=O)N2CCOCC2)N(C(=O)[C@@H]2CN(C(C)(C)C)C[C@H]2c2ccc(Cl)cc2)C1)[C@H]1CC[C@@H](C)CC1 [Example 1, N-((3S,5S)-1-((3S,4R)-1-(tert-butyl)-4-(4-chlorophenyl)pyrrolidine-3-carbonyl)-5-(morpholine-4-carbonyl)pyrrolidin-3-yl)-N-((1s,4R)-4-methylcyclohexyl) isobutyramide hydrochloride]",thermal stability,[1],thermally stable crystalline form
same,chemical stability to heat and humidity,"[2]; 4 weeks under the accelerated condition (40° C., 75% RH) and the harsh condition (80° C.)",showed chemical stability for 4 weeks
same,"HPLC analysis result, Open ACC",[2]; Week 2,97.67
same,"HPLC analysis result, Closed STR",[2]; Week 2,97.73
same,"HPLC analysis result, Open ACC",[2]; Week 4,97.82
same,"HPLC analysis result, Closed STR",[2]; Week 4,97.94
same,"HPLC analysis result, Initial","[2]; initial, before storage",97.7%
